Data as given in patent publication US20250041624A1, “METHOD FOR ENHANCING ACTIVITY OF PHOTOSENSITIZER BY MAGNETIC FIELD” (PEKING UNIVERSITY, priority 2021, published 2025).

Experiment: Reaction rate of fluorescent probe SOSG with 1O2 generated by photosensitizer under light and magnetic field
Format: physicochemical
Details: Ce6 and SOSG 10 μmol/L in water, 640 nm LED 5 mW·cm−2
Method: (1) The photosensitizer Rose Bengal (RB) (the purity >98%, available from Saen Chemical Technologies (Shanghai) Ltd. Co., branded as Energy Chemical) and singlet oxygen fluorescent probe (SOSG) are dissolved in water (SOSG available from ThermoFisher Scientific (China) Co., Ltd.). In the resulting solution, the photosensitizer and SOSG are both at a concentration of 10 μmol/L. In a magnetic field with certain strength, the solutions are exposed to a 561 nm LED lamp (light emitting diode) at a power of 5 mW·cm^−2 and tested for fluorescence spectra at 0, 15, 30, 45, 60, 90, 120 and 180 seconds of light exposure, respectively, resulting in emission intensity ([…]) versus time (t) curves. The above fluorescence spectroscopy test is performed at a magnetic field strength of 0, 10, 35, 85, 180, 300 mT, respectively (external magnetic field provided by a neodymium iron boron permanent magnet).
(2) The photosensitizer chlorin e6 (Ce6, Chlorin e6) (available from Saen Chemical Technologies (Shanghai) Ltd. Co., branded as Energy Chemical) and singlet oxygen fluorescent probe (SOSG) are dissolved in water, both with a concentration of 10 μmol/L in the resulting solutions. In a magnetic field with certain strength, the solutions are exposed to a 640 nm LED lamp (light emitting diode) at a power of 5 mW·cm^−2 and tested for fluorescence spectra at 0, 15, 30, 45, 60, 90, 120 and 180 seconds of light exposure, respectively, resulting in emission intensity ([…]) versus time (t) curves. The above fluorescence spectra are tested at a magnetic field strength of 0, 10, 30, 70, 150, 250 mT, respectively.
The external magnetic field is supplied by Neodymium Iron Boron Permanent Magnet. Fluorescence spectra are tested using Edinburg FLS980 Steady State Transient Fluorescence Spectrometer with a detector of PMT R928 and a light source of 450 W ozone-free xenon lamp with excitation wavelength of λex=488 nm.
Under irradiation conditions, photosensitizer is excited to produce singlet oxygen ^1O2, and fluorescent probe SOSG reacts with ^1O2 to give endoperoxide with green fluorescence emission characteristic, with emission wavelength of 525 nm under excitation wavelength conditions of 488 nm. The reaction has a reaction rate of r.
In the present invention, through application of light and a magnetic field, the magnetic field effects (MFEs) is quantified by mfeR, the change rate of the reaction rate r, mfeR=(rB−r0)/r0×100%, where r0 is the reaction rate at a magnetic field strength of 0 mT and rB is the reaction rate at a magnetic field strength of B mT. Where the reaction rate (r) is proportional to the slope of the tangent of a curve (first derivative of the curve) of the emission intensity (I525 nm) versus time (t). Under magnetic field strengths of 0, 10, 35, 85, 180, 300 mT and from the time of starting to illuminate and place in magnetic field (the time recorded as 0), the first derivative of the I525 nm−t curve is 1, 1.05, 1.09, 0.99, 1.12, 1.14 (normalized).

Q: Which “first derivative of I525 nm−t curve at time 0 (normalized)” value (“first derivative … (normalized)” for short) (MF 0 mT) does the source give for chlorin e6 [Ce6] here?
A: 1

Q: And the “first derivative … (normalized)” value (MF 10 mT)?
A: 1.09

Q: And the “first derivative … (normalized)” value (MF 30 mT)?
A: 1.33

Q: And the “first derivative … (normalized)” value (MF 70 mT)?
A: 1.23

Q: And the “first derivative … (normalized)” value (MF 150 mT)?
A: 1.16

Q: What about the “first derivative … (normalized)” value (MF 250 mT) of the same substance?
A: 1.12
